Laboratory results published in patent US11186606B2, “Compositions and methods of modulating the immune response by activating alpha protein kinase 1” (Shanghai Yao Yuan Biotechnology Co., Ltd., priority 2017, dated 2021).

How the values were obtained:
CT26 cells [1] = test: CT26 tumor xenograft model, tumor volume; assay type: in vivo, BALB/c mice
Method: We used a CT26 tumor xenograft model to test the anti-cancer activity of H1b-ADP. Tumor cells (2×10^5 per 100 uL CT26 cells) were inoculated subcutaneously into the right flank of BALB/c mice. At day 6, mice whose tumors had reached 3-5 mm in diameter were randomized and grouped into three groups (n=8 each group), control, HMP-1bP (580 ug), and H1b-ADP (1.2 ug). Injections were performed using a total volume of 20 uL at days 6, 8, 10, 12, and 14 post inoculation. Tumor volumes were calculated every 2 days from caliper measurements of tumor dimension using the formula (L×W^2)/2, where L is the longer measurement.
To test whether H1b-ADP could augment an anti-tumor response by a checkpoint inhibitor, we tested the effects of co-administration with an anti-PD1 antibody. Tumor cells (2×10^5 per 100 μL CT26 cells) were inoculated subcutaneously into the left and right flanks of BALB/c mice. At day 7, mice whose tumors had reached 5 mm in diameter were randomized and grouped (n=8 each group) into the following four groups: anti-PD1 antibody; rat IgG; H1b-ADP+rat IgG; H1b-ADP+anti-PD1 antibody. We utilized RMP1-14 as the anti-PD1 antibody (10 mg/kg) and a rat IgG 2a (2A3) as the control IgG. Each of the anti-PD-1 antibody and the control IgG was administered intraperitoneally in a 200 μL volume on days 6, 10, 12, and 17 post-inoculation. H1b-ADP (6.2 μg) was intratumorally injected in a 20 μL volume at day 6, 8, 10, 12, and 15. Tumor volumes were calculated every 2 days from caliper measurements of tumor dimensions using the formula (L×W^2)/2, where L is the longer measurement. The results are shown in FIG. 13A for injected tumors and FIG. 13B for distant tumors. […]
The experiment was carried out as combo experiments of anti-PD1 except for the following variations. At day 6, mice whose tumors had reached 5 mm in diameter were randomized and grouped into the following four groups: c-di-AM(PS)2; PBS; H1b-ADP; H1b-ADP+c-di-AM(PS)2. We utilized c-di-AM(PS)2 as the STING agonist. Each of the c-di-AM(PS)2 (1 μg) and H1b-ADP (6.2 μg) was administered intratumorally in a 20 μL volume on days 6, 7, and 9 post-inoculation.
The experiment was carried out as combo experiments of anti-PD-1 except for the following variations. At day 6, mice whose tumors had reached 5 mm in diameter were randomized and grouped into the following four groups: anti-CD4 antibody (GK1.5 clone, BE0003-1, BioXcell); rat IgG; H1b-ADP+rat IgG; H1b-ADP+anti-CD4 antibody. Each of the anti-CD4 antibody (200 μg) and the control IgG (200 μg) was administered intraperitoneally in a 200 μL volume on days 3, 4, 8 post-inoculation. H1b-ADP (6.2 μg) was administered intratumorally in a 20 μL volume on days 6, 8, 10, 12, 14 post-inoculation.
The experiment was carried out as combo experiments of anti-PD-1 except for the following variations. At day 6, mice whose tumors had reached 5 mm in diameter were randomized and grouped into the following four groups: Resquimod; PBS; H1b-ADP; H1b-ADP+Resquimod. Resquimod (10 μg) and H1b-ADP (6.2 μg) were administered intratumorally in a 20 μL volume on days 6, 8, 11 post-inoculation.
We used a CT26 tumor xenograft model to test the anti-cancer activity of H1b-ADP derivative Compounds 1 and 2. Tumor cells (2×10^5 per 100 uL CT26 cells) were inoculated subcutaneously into the right flank of BALB/c mice. At day 7, mice whose tumors had reached 3-5 mm in diameter were randomized and grouped into three groups (n=9 each group), control, Compound 1 (50 nmol), and Compound 2 (50 nmol). Injections were performed using a total volume of 20 uL at days 7, 9, and 11 post inoculation. Tumor volumes were calculated every 2 days from caliper measurements of tumor dimension using the formula (L×W^2)/2, where L is the longer measurement.

CT26 cells [2] = test: mRNA expression in CT26 tumor tissue after intratumoral injection (qPCR); assay type: in vivo, BALB/c mice; conditions: 4 hours post intratumoral injection, 2.5 μg, 250 ng, 50 ng
Method: We next asked whether H1b-ADP caused an increase in pro-inflammatory cytokines within the tumor. Tumor cells (2×10^5 per 100 μL CT26 cells) were inoculated subcutaneously into the right flank of BALB/c mice. 2.5 μg (n=2), 250 ng (n=2), 50 ng (n=2) of H1b-ADP or control (n=2) was intratumorally injected (20 uL) at day 7 post inoculation. 4 hours post-injection, tumor issues were dissected and harvested. Total RNA was isolated (TRIzol™, ThermoFisher) and cDNA was synthesized (PrimeScript™ RT reagent Kit, Takara) and amplified (AceQ™ qPCR SYBR™ Green Master Mix, Vazyme Biotech using a QuantStudio™ 7 Flex Real-Time PCR Systems (ThermoFisher) according to manufacturers' protocols.

ALPK1 [3] = target: T1, ALPK1 (Homo sapiens, UniProt Q96QP1); test: IL8 secretion in HEK293 cells (IL8 ELISA) as indicator of ALPK1 activation; conditions: cells cultured with fetal bovine, human or mouse serum
Method: We pre-mixed H1b-ADP with phosphatase inhibitor sodium orthovanadate (Na3VO4) before incubation with FBS.
In these experiments, serial dilutions of the compounds were added to the tissue culture media of HEK293 cells with (FIG. 27B, FIG. 28B, FIG. 29B) or without (FIG. 26, FIG. 27A, FIG. 28A, FIG. 29A) 10% FBS, as indicated in the figures. After 4 hours, the cell supernatant was collected and analyzed for IL8 concentration using IL8 ELISA (BD) as an indicator of ALPK1 activation.

ALPK1 [4] = target: T1, ALPK1; test: Thermal shift assay (SYPRO Orange) for binding to ALPK1; conditions: ALPK1 7 uM
Excerpt: The thermal shift assay is widely used to determine the binding of a molecule to a protein of interest. The assay is based on the increase in thermal energy required for denaturation of a protein where another molecule is bound to the protein. SYPRO Orange is a fluorescent compound used in the detection of thermal shift. SYPRO Orange binds to hydrophobic surfaces of the protein, and water strongly quenches its fluorescence. When the protein unfolds, the exposed hydrophobic surfaces bind the dye, resulting in an increase in fluorescence. When another molecule is bound to the protein, an increase in the temperature required for unfolding of the protein is observed.
This assay system was used to determine whether or not chemically synthesized HBP, HMP-1bP, and H1b-ADP directly bind to ALPK1. […] Only H1b-ADP induced a shift of more than 1 degree, at each of the three highest concentrations tested, 5 uM, 25 uM, and 125 uM.

T1 sequence (Q96QP1 whole entry): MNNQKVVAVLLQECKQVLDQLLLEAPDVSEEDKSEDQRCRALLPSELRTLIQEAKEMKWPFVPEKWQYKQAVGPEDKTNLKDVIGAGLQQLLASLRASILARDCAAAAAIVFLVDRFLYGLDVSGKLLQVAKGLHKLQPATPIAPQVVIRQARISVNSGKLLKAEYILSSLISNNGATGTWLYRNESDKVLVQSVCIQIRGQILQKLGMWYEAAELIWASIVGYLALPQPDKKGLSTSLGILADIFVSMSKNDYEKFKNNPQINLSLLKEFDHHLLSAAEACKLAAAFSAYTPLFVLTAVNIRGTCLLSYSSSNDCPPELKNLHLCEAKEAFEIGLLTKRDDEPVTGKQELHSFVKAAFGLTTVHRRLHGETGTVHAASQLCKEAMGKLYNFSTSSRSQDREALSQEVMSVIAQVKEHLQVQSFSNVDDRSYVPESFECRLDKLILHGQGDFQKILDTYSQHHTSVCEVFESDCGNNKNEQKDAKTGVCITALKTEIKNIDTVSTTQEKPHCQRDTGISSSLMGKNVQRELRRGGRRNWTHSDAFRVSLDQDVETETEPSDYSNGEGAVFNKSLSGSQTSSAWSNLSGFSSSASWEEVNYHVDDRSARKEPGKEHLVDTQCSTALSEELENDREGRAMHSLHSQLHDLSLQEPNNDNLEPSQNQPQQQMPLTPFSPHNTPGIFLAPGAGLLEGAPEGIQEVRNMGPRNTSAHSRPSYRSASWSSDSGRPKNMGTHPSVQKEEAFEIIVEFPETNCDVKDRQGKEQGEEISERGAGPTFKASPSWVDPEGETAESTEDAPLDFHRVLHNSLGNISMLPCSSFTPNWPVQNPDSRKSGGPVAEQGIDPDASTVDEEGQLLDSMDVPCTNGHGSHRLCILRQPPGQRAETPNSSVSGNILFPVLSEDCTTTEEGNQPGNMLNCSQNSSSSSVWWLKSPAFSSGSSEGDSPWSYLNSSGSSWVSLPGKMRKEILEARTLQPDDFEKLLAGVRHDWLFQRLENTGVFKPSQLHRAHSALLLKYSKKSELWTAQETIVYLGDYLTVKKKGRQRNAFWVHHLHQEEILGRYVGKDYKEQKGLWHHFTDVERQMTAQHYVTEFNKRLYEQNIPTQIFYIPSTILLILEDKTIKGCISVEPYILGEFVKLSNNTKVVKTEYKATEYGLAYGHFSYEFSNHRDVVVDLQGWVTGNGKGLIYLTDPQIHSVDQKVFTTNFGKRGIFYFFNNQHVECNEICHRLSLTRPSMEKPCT

SMILES: Nc1ncnc2c1ncn2[C@@H]1O[C@H](COP(=O)(O)OP(=O)(O)O[C@@H]2O[C@H]([C@H](O)CO)[C@@H](O)[C@H](O)[C@@H]2O)[C@@H](O)[C@H]1O [Compound H1b-ADP, D-glycero-D-manno-heptose-1β-ADP]
- tumor growth (CT26 cells [1]; Example 7: H1b-ADP 6.2 μg intratumoral, RMP1-14 10 mg/kg intraperitoneal): markedly suppressed tumor growth
- tumor growth (CT26 cells [1]; intratumoral, days 6, 8, 10, 12, 14, HMP-1bP 580 ug, H1b-ADP 1.2 ug): reduced tumor growth
- PD-1 and PD-L1 expression (CT26 cells [2]): increased
- mRNA expression of cytotoxic T cell marker CD8, T-helper cell marker CD4, regulatory T cell marker Foxp3 and Th1 cell marker T-bet (CT26 cells [2]): increased
- mRNA expression of inflammatory cytokine IL-1b, Tnfa, Ifn gamma, and IL-6, and chemokine Cxcl1 (CT26 cells [2]): increased
- activity to activate ALPK1 in HEK293 cells (IL8 secretion) (ALPK1 [3]): greatly declined
- thermal shift / direct binding to ALPK1 (ALPK1 [4]; 1 uM, 5 uM, 25 uM, or 125 uM): able to directly bind to ALPK1
- thermal shift of ALPK1 (ALPK1 [4]; at 5 uM, 25 uM, and 125 uM): more than 1 degree
